Reference: patent publication US4450292A, “Derivatives of phenyl aliphatic carboxylic acids, and use thereof in treating gastric and gastro-duodenal ailments” (Roussel Uclaf, priority 1981, dated 1984)
Counter-ions that a name gives are not always drawn.

Columns and labels:
Type in all cases: in vivo
[1] = system: ulcers in rats at the level of the stomach; assay: Anti-ulcer activity, SHAY technique (ligating of the pylorus); settings: by mouth, about 16 hours after treatment
Text: (1) Determination of the anti-ulcer activity of the compounds of Examples 1 to 4
The technique used is described by SHAY et al in Gastroenterology, 5, 43, (1945).
SHAY'S technique consists in inducing ulcers in rats at the level of the stomach by ligating of the pylorus.
The animals are anesthetized with ether. A longitudinal incision is made about 1 cm below the sternum, the glandular portion of the stomach and the duodenum are exposed and a ligature is applied a few millimeters below the pylorus. The muscular layer is left as is and the skin is sutured by two clips.
The animals immediately receive the dispersant or the substance to be studied by mouth in a volume of 0.5 cc per hundred grams and are kept without food or drink until sacrificed by carotic venesection, effected about 16 hours after the treatment.
Before removing the stomach, a ligature is placed around the cardia.
The gastric fluid is collected in order to measure the pH thereof.
The stomach is then opened along the greater curvature, rinsed in physiological serum and spread out on millimeter paper in order to be examined under a binocular lens.
The seriousness of the lesions is evaluated macroscopically, being rated from 0 to 4 for each stomach.
For each lot of rats the average intensity of the ulcerations is determined and the protection calculated by referring the average index of the group to the average index of the control group.
The pH values of the gastric liquid are also determined for the treated animals and the control animals.

[2] = Acute toxicity, LD50 lethal dose after oral administration to mice; settings: mouse, in vivo, po, orally
Description: (§1) (3) Determination of the acute toxicity
(§2) The LD50 lethal dose of the derivatives of Examples 1 to 9 after administration orally to mice was evaluated.

gastric fluid = assay: Anti-ulcer activity, SHAY technique as modified by P. H. Guth (pylorus ligature plus aspirin), pH of the gastric fluid; settings: rats, orally, aspirin 200 mg/kg
Description: (2) Determination of the anti-ulcer activity of the compounds of Examples 7 and 8
The technique used is described by SHAY et al in Gastroenterology, 5, 43 (1945) as modified by P. H. Guth in Gastroenterology, 76, 88 (1976).
After 48 hours fast, rats receive the dispersant or the substance to be studied orally in a volume of 1 cc/100 g.
One hour later the animals are anesthetized with ether. A longitudinal incision is made about 1 cm below the sternum, the glandular part of the stomach and the duodenum are exposed and a ligature is placed a few millimeters below the pylorus. The muscular layer is sutured and the skin is clipped.
An hour later, 200 mg/kg of aspirin dispersed in a 1% suspension of methyl cellulose in water to which 150 millimoles of hydrochloric acid have been added are administered orally in a volume of 0.5 cc/100 g.
Two hours after this last administration, the animals are sacrificed by means of carbon dioxide.
Before removing the stomach, a ligature is placed above the cardia.
The gastric fluid is collected in order to measure its pH for the treated animals and the control animals.

mice = assay: Acute toxicity, LD50 lethal dose after oral administration to mice; settings: orally
Description: as §1, §2

COc1cc(C(=O)CC(O)C(=O)O)cc(OC)c1OC (centres unmarked) [Example 3, 4-(3,4,5-trimethoxyphenyl)-4-oxo-2-hydroxy butanoic acid]
Ulcerization % Protection As Compared with the Controls ([1]; 100 mg/kg): 45%
pH of the Gastric Fluid, Treated Animals ([1]; 100 mg/kg): 3.7
LD50 [2]: 1000 mg/kg

COc1cc(OC)c(C(=O)/C=C/C(=O)O)c(OC)c1 [Example 5, (E)-4-(2,4,6-trimethoxyphenyl)-4-oxo-2-butenoic acid]
LD50 [2]: 200 mg/kg

COc1cc(C(=O)/C=C/C(=O)O)cc(OC)c1OC [Example 4, (E)-4-(3,4,5-trimethoxyphenyl)-4-oxo-2-butenoic acid]
Ulcerization % Protection As Compared with the Controls ([1]; 0.8 mg/kg): 38%
pH of the Gastric Fluid, Treated Animals ([1]; 0.8 mg/kg): 1.8
Ulcerization % Protection As Compared with the Controls ([1]; 4 mg/kg): 65%
pH of the Gastric Fluid, Treated Animals ([1]; 4 mg/kg): 3.0
Ulcerization % Protection As Compared with the Controls ([1]; 20 mg/kg): 98%
pH of the Gastric Fluid, Treated Animals ([1]; 20 mg/kg): 2.4
LD50 [2]: 600 mg/kg

COc1cc(C(=O)/C=C/C(=O)O)cc(OC)c1OC [Example 7, Morpholine salt of (E) 4-(3,4,5-trimethoxyphenyl)-4-oxo-2-butenoic acid]
pH of the Gastric Fluid, Treated Animals (gastric fluid; 4 mg/kg): 2
pH of the Gastric Fluid, Treated Animals (gastric fluid; 20 mg/kg): 2.4
pH of the Gastric Fluid, Treated Animals (gastric fluid; 100 mg/kg): 4.1
LD50 (mice): > 400 mg/kg

COc1cc(C(=O)/C=C/C(=O)O)cc(OC)c1OC [Example 9, Piperidine salt of (E)-4-(3,4,5-trimethoxyphenyl)-4-oxo-2-butenoic acid]
LD50 (mice): > 400 mg/kg

COc1cc(C(=O)/C=C/C(=O)O)cc(OC)c1OC [Example 8, Sodium salt of (E)-4-(3,4,5-trimethoxyphenyl)-4-oxo-2-butenoic acid]
pH of the Gastric Fluid, Treated Animals (gastric fluid; 0.8 mg/kg): 2.3
pH of the Gastric Fluid, Treated Animals (gastric fluid; 4 mg/kg): 2.2
pH of the Gastric Fluid, Treated Animals (gastric fluid; 20 mg/kg): 3
pH of the Gastric Fluid, Treated Animals (gastric fluid; 100 mg/kg): 4.6
LD50 (mice): > 400 mg/kg

COc1cc(OC)c(C(=O)/C=C/C(=O)O)cc1OC [Example 2, (E) 4-(2,4,5-trimethoxyphenyl)-4-oxo-2-butenoic acid]
Ulcerization % Protection As Compared with the Controls ([1]; 4 mg/kg): 72%
pH of the Gastric Fluid, Treated Animals ([1]; 4 mg/kg): 3.6
Ulcerization % Protection As Compared with the Controls ([1]; 20 mg/kg): 100%
pH of the Gastric Fluid, Treated Animals ([1]; 20 mg/kg): 4.6
LD50 [2]: 600 mg/kg

COc1cc(OC)c(C(=O)CC(O)C(=O)O)cc1OC (centres unmarked) [Example 1, 4-(2,4,5-trimethoxyphenyl)-4-oxo-2-hydroxy butanoic acid]
Ulcerization % Protection As Compared with the Controls ([1]; 100 mg/kg): 43%
pH of the Gastric Fluid, Treated Animals ([1]; 100 mg/kg): 2.5
LD50 [2]: 1000 mg/kg
